{"source": "paper PMC6516043", "about": "“Functional Analysis of the Chemosensory Protein GmolCSP8 From the Oriental Fruit Moth, Grapholita molesta (Busck) (Lepidoptera: Tortricidae)” (Frontiers in Physiology, 2019)", "assay_type_in_all_cases": "binding", "key": {"rGmolCSP8": {"biological_target": "rGmolCSP8 (Grapholita molesta, UniProt A0A0M4FML8)", "sequence (A0A0M4FML8 entry or part of it)": "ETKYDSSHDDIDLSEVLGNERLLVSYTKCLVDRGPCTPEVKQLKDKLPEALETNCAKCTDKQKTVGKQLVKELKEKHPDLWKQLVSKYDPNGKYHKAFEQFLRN", "experiment": "Titration of protein with fluorescent probe 1-NPN, wild-type", "settings": "wild-type rGmolCSP8, 2 μM protein, pH 7.4; read-out: Kd (dissociation constant) of 1-NPN", "procedure": "(§1) To determine whether GmolCSP8 is involved in odorant binding, fluorescence competitive binding assays were performed ([Zhong et al., 2012]). The fluorescence spectra were recorded using a fluorescence spectrophotometer (F-4500, Hitachi, Tokyo, Japan) in a 1 cm light path fluorimeter quartz cuvette with 10 nm slits for excitation and 20 nm slits for emission. The selected chemicals are listed in Table 2, and included four sex pheromone components and 34 volatiles from different host plants (peach and pear trees) of G. molesta based on previous investigations ([Natale et al., 2004]; [Lu et al., 2012]; [Najar-Rodriguez et al., 2013b]). […] The fluorescent probe was excited at 337 nm and emission spectra were recorded from 370 to 550 nm. […] Dissociation constants (Kd) of protein to 1-NPN were calculated by non-linear regression, using GraphPad Prism 4.00 software (GraphPad Software Inc.). The inhibition constants (Ki) of the competitors were determined using the corresponding IC50 values (concentration of competitor that reduced the initial fluorescence intensity by half) based on the following equation: Ki = [IC50]/(1+[1-NPN]/K1-NPN), where [1-NPN] is the free concentration of 1-NPN and K1-NPN is the dissociation constant of the complex GmolCSP8/1-NPN.\nFIGURE 5 Binding curve and relative Scatchard plot of 1-NPN to rGmolCSP8. […] The calculated dissociation constant of rGmolCSP8 was 13.85 μM. […]"}, "GmolCSP8-T27A": {"biological_target": "GmolCSP8-T27A (Grapholita molesta, UniProt A0A0M4FML8, T42A)", "sequence (A0A0M4FML8 entry or part of it T42A)": "as the sequence (A0A0M4FML8 entry or part of it) above, with T27A counted along it", "experiment": "Titration of protein with fluorescent probe 1-NPN, mutant T27A", "procedure": "as §1, with “GmolCSP8/1-NPN. […]” for “GmolCSP8/1-NPN.”"}, "GmolCSP8-L30A": {"biological_target": "GmolCSP8-L30A (Grapholita molesta, UniProt A0A0M4FML8, L45A)", "sequence (A0A0M4FML8 entry or part of it L45A)": "as the sequence (A0A0M4FML8 entry or part of it) above, with L30A counted along it", "experiment": "Titration of protein with fluorescent probe 1-NPN, mutant L30A", "procedure": "as §1, with “GmolCSP8/1-NPN. […]” for “GmolCSP8/1-NPN.”"}, "GmolCSP8-V40A": {"biological_target": "GmolCSP8-V40A (Grapholita molesta, UniProt A0A0M4FML8, V55A)", "sequence (A0A0M4FML8 entry or part of it V55A)": "as the sequence (A0A0M4FML8 entry or part of it) above, with V40A counted along it", "experiment": "Titration of protein with fluorescent probe 1-NPN, mutant V40A", "procedure": "as §1, with “GmolCSP8/1-NPN. […]” for “GmolCSP8/1-NPN.”"}, "GmolCSP8-L80A": {"biological_target": "GmolCSP8-L80A (Grapholita molesta, UniProt A0A0M4FML8, L95A)", "sequence (A0A0M4FML8 entry or part of it L95A)": "as the sequence (A0A0M4FML8 entry or part of it) above, with L80A counted along it", "experiment": "Titration of protein with fluorescent probe 1-NPN, mutant L80A", "procedure": "as §1, with “GmolCSP8/1-NPN. […]” for “GmolCSP8/1-NPN.”"}}, "data": [{"smiles": "c1ccc(Nc2cccc3ccccc23)cc1", "note": "[1-NPN, N-phenyl-1-naphthylamine]", "values": [{"measurement": "Kd", "setting": "rGmolCSP8", "value": 13.8, "unit": "µM"}, {"measurement": "Kd", "setting": "GmolCSP8-T27A", "value": 11.2, "unit": "µM"}, {"measurement": "Kd", "setting": "GmolCSP8-L30A", "value": 14.4, "unit": "µM"}, {"measurement": "Kd", "setting": "GmolCSP8-V40A", "value": 11.8, "unit": "µM"}, {"measurement": "Kd", "setting": "GmolCSP8-L80A", "value": 11.7, "unit": "µM"}]}]}
